Columns and labels:
[1] = system: hepatitis C replicon; assay: hepatitis C replicon EC50 assay; type: cell-based; settings: Hepatitis C virus; hepatitis C replicon; read-out: EC50
Procedure, shortened: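 NS3/NS4 protease complexes were formed and compound inhibitory concentrations (IC50) measured at ambient temperature (23° C.) in 50 mM Tris-HCl, pH 7.5, with 15% glycerol, 0.6 mM LDAO, 25 μM NS4A peptide and 10 mM DTT. Replicon EC50 values come from a standard HCV replicon cell assay.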

[2] = target: NS3/NS4 complexes (Hepatitis C virus genotype 1a, UniProt P27958); assay: NS3/NS4 inhibition assay (IC50); type: biochemical; settings: NS3/NS4 activity; 23° C., 25 μM NS4A peptide
NS3/NS4 complexes, sequence (P27958 1027-1657, one chain of several): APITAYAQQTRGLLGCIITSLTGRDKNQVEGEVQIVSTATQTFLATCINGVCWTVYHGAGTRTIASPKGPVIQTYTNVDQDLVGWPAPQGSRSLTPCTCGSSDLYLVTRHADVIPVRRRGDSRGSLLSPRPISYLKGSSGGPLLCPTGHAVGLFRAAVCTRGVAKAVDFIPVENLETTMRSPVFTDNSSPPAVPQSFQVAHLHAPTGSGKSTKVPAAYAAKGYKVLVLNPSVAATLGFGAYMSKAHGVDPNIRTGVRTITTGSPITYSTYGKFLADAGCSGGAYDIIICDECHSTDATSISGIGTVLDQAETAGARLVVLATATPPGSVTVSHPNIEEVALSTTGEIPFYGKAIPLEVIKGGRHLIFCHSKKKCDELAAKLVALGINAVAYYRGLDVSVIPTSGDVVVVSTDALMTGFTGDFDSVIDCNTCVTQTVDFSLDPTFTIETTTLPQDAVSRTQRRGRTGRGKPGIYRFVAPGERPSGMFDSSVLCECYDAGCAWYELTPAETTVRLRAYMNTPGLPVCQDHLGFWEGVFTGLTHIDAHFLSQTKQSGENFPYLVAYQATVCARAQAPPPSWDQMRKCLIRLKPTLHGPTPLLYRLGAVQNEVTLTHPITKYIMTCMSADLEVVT
Procedure, shortened: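 Inhibitory concentrations against the NS3/NS4 complex are determined at 23° C. in pH 7.5 buffer (50 mM Tris-HCl) containing 25 μM NS4A peptide, 0.6 mM lauryldimethylamine oxide, 10 mM dithiothreitol and 15% glycerol. EC50 values derive from the hepatitis C replicon assay.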

Structure (SMILES) | EC50 [1] | IC50 [2]
CC(C)(C)OC(=O)N[C@H]1CCCCC/C=C\[C@@H]2C[C@@]2(C(=O)NS(=O)(=O)C2(C)CC2)NC(=O)[C@@H]2C[C@@H](n3nnc(-c4ccccc4)n3)CN2C1=O [Compound 801] | 10 to 100 nM | < 10 nM
CC1(S(=O)(=O)NC(=O)[C@@]23C[C@H]2/C=C\CCCCC[C@H](Nc2ccccc2)C(=O)N2C[C@H](n4nnc(-c5ccccc5)n4)C[C@H]2C(=O)N3)CC1 [Compound 802] | > 100 nM | < 10 nM
COc1ccc(-c2nnn([C@@H]3C[C@H]4C(=O)N[C@]5(C(=O)NS(=O)(=O)C6(C)CC6)C[C@H]5/C=C\CCCCC[C@H](NC(=O)OC(C)(C)C)C(=O)N4C3)n2)cc1 [Compound 803] | 10 to 100 nM | < 10 nM
COc1ccc(-c2nnn([C@@H]3C[C@H]4C(=O)N[C@]5(C(=O)NS(=O)(=O)C6(C)CC6)C[C@H]5/C=C\CCCCC[C@H](Nc5ccccc5)C(=O)N4C3)n2)cc1 [Compound 804] | 10 to 100 nM | < 10 nM
CC1(S(=O)(=O)NC(=O)[C@@]23C[C@H]2/C=C\CCCCC[C@H](Nc2ccccc2)C(=O)N2C[C@H](n4nnc(-c5cccc(-c6nccs6)c5)n4)C[C@H]2C(=O)N3)CC1 [Compound 805] | > 100 nM | < 10 nM
COc1ccc2c(O[C@@H]3C[C@H]4C(=O)N[C@]5(C(=O)NS(=O)(=O)C6(C)CC6)C[C@H]5/C=C\CCCCC[C@H](Nc5cccc(F)c5)C(=O)N4C3)nc(-c3nc(C(C)C)cs3)nc2c1C [Compound 901] | < 10 nM | < 10 nM
COc1ccc2c(O[C@@H]3C[C@H]4C(=O)N[C@]5(C(=O)NS(=O)(=O)C6(C)CC6)C[C@H]5/C=C\CCCCC[C@H](Nc5ccc(F)c(F)c5)C(=O)N4C3)cc(-c3nc(C(C)C)cs3)nc2c1C [Compound 1001] | < 10 nM | < 10 nM
COc1ccc2c(O[C@@H]3C[C@H]4C(=O)N[C@]5(C(=O)NS(=O)(=O)C6(C)CC6)C[C@H]5/C=C\CCCCC[C@H](Nc5ccccn5)C(=O)N4C3)cc(-c3nc(C(C)C)cs3)nc2c1C [Compound 1002] | < 10 nM | < 10 nM
CC1(S(=O)(=O)NC(=O)[C@@]23C[C@H]2/C=C\CCCCC[C@H](Nc2cccc(F)c2)C(=O)N2C[C@H](O)C[C@H]2C(=O)N3)CC1 [Compound 1003] | 10 to 100 nM | > 100 nM
COc1ccc2c(O[C@@H]3C[C@H]4C(=O)N[C@]5(C(=O)NS(=O)(=O)C6(C)CC6)C[C@H]5/C=C\CCCCC[C@H](Nc5cccc(F)c5)C(=O)N4C3)nc(-c3nc(C(C)C)cs3)cc2c1 [Compound 1004] | 10 to 100 nM | < 10 nM
COc1ccc2c(O[C@@H]3C[C@H]4C(=O)N[C@]5(C(=O)NS(=O)(=O)C6(C)CC6)C[C@H]5/C=C\CCCCC[C@H](Nc5cccc(F)c5)C(=O)N4C3)nc(-c3nc(C(C)C)cs3)cc2c1C [Compound 1005] | > 100 nM | < 10 nM
COc1cnc(O[C@@H]2C[C@H]3C(=O)N[C@]4(C(=O)NS(=O)(=O)C5(C)CC5)C[C@H]4/C=C\CCCCC[C@H](Nc4cccc(F)c4)C(=O)N3C2)c2cc(Cl)ccc12 [Compound 1101] | < 10 nM | < 10 nM
CC(C)c1nc(-c2cccc3c2nc(O[C@@H]2C[C@H]4C(=O)N[C@]5(C(=O)NS(=O)(=O)N(C)C)C[C@H]5/C=C\CCCCC[C@H](NC(=O)OC(C)(C)C)C(=O)N4C2)n3C(C)C)sc1C(C)C [Compound 1201] | > 100 nM | < 10 nM
CCn1c(O[C@@H]2C[C@H]3C(=O)N[C@]4(C(=O)NS(=O)(=O)N(C)C)C[C@H]4/C=C\CCCCC[C@H](NC(=O)OC(C)(C)C)C(=O)N3C2)nc2c(-c3nc(C(C)C)c(C)o3)cccc21 [Compound 1204] | < 10 nM | < 10 nM
Cc1oc(-c2cccc3c2nc(O[C@@H]2C[C@H]4C(=O)N[C@]5(C(=O)NS(=O)(=O)N(C)C)C[C@H]5/C=C\CCCCC[C@H](NC(=O)OC(C)(C)C)C(=O)N4C2)n3C(C)C)nc1C(C)(C)C [Compound 1205] | < 10 nM | < 10 nM
CCCc1nc(-c2cccc3c2nc(O[C@@H]2C[C@H]4C(=O)N[C@]5(C(=O)NS(=O)(=O)N(C)C)C[C@H]5/C=C\CCCCC[C@H](NC(=O)OC(C)(C)C)C(=O)N4C2)n3C(C)C)oc1C [Compound 1206] | < 10 nM | < 10 nM
Cc1sc(-c2cccc3c2nc(O[C@@H]2C[C@H]4C(=O)N[C@]5(C(=O)NS(=O)(=O)N(C)C)C[C@H]5/C=C\CCCCC[C@H](NC(=O)OC(C)(C)C)C(=O)N4C2)n3C(C)C)nc1C(C)(C)C [Compound 1207] | 10 to 100 nM | < 10 nM
Cc1sc(-c2cccc3c2nc(O[C@@H]2C[C@H]4C(=O)N[C@]5(C(=O)NS(=O)(=O)C6(C)CC6)C[C@H]5/C=C\CCCCC[C@H](NC(=O)OC(C)(C)C)C(=O)N4C2)n3C(C)C)nc1C(C)(C)C [Compound 1208] | 10 to 100 nM | < 10 nM
CCCc1nc(-c2cccc3c2nc(O[C@@H]2C[C@H]4C(=O)N[C@]5(C(=O)NS(=O)(=O)N(C)C)C[C@H]5/C=C\CCCCC[C@H](NC(=O)OC(C)(C)C)C(=O)N4C2)n3C(C)C)sc1C [Compound 1209] | < 10 nM | < 10 nM
CCCc1nc(-c2cccc3c2nc(O[C@@H]2C[C@H]4C(=O)N[C@]5(C(=O)NS(=O)(=O)C6(C)CC6)C[C@H]5/C=C\CCCCC[C@H](NC(=O)OC(C)(C)C)C(=O)N4C2)n3C(C)C)sc1C [Compound 1210] | < 10 nM | < 10 nM
CC(C)c1nc(-c2cccc3c2nc(O[C@@H]2C[C@H]4C(=O)N[C@]5(C(=O)NS(=O)(=O)N(C)C)C[C@H]5/C=C\CCCCC[C@H](NC(=O)OC(C)(C)C)C(=O)N4C2)n3C(C)C)oc1C(C)C [Compound 1211] | < 10 nM | < 10 nM
CC(C)c1nc(-c2cccc3c2nc(O[C@@H]2C[C@H]4C(=O)N[C@]5(C(=O)NS(=O)(=O)C6(C)CC6)C[C@H]5/C=C\CCCCC[C@H](NC(=O)OC(C)(C)C)C(=O)N4C2)n3C(C)C)oc1C(C)C [Compound 1212] | < 10 nM | < 10 nM
CC(C)c1nc(-c2cccc3c2nc(O[C@@H]2C[C@H]4C(=O)N[C@]5(C(=O)NS(=O)(=O)C6(C)CC6)C[C@H]5/C=C\CCCCC[C@H](NC(=O)OC(C)(C)C)C(=O)N4C2)n3C(C)C)sc1C(C)C [Compound 1213] | 10 to 100 nM | < 10 nM
Cc1oc(-c2cccc3c2nc(O[C@@H]2C[C@H]4C(=O)N[C@]5(C(=O)NS(=O)(=O)N(C)C)C[C@H]5/C=C\CCCCC[C@H](NC(=O)OC(C)(C)C)C(=O)N4C2)n3C(C)C)nc1Cc1ccccc1 [Compound 1214] | < 10 nM | < 10 nM
Cc1oc(-c2cccc3c2nc(O[C@@H]2C[C@H]4C(=O)N[C@]5(C(=O)NS(=O)(=O)C6(C)CC6)C[C@H]5/C=C\CCCCC[C@H](NC(=O)OC(C)(C)C)C(=O)N4C2)n3C(C)C)nc1Cc1ccccc1 [Compound 1215] | < 10 nM | < 10 nM
Cc1sc(-c2cccc3c2nc(O[C@@H]2C[C@H]4C(=O)N[C@]5(C(=O)NS(=O)(=O)N(C)C)C[C@H]5/C=C\CCCCC[C@H](NC(=O)OC(C)(C)C)C(=O)N4C2)n3C(C)C)nc1Cc1ccccc1 [Compound 1216] | < 10 nM | < 10 nM
Cc1sc(-c2cccc3c2nc(O[C@@H]2C[C@H]4C(=O)N[C@]5(C(=O)NS(=O)(=O)C6(C)CC6)C[C@H]5/C=C\CCCCC[C@H](NC(=O)OC(C)(C)C)C(=O)N4C2)n3C(C)C)nc1Cc1ccccc1 [Compound 1217] | < 10 nM | < 10 nM

From patent US20110081315A1, “NOVEL MACROCYCLIC INHIBITORS OF HEPATITIS C VIRUS REPLICATION” (INTERMUNE, INC., priority 2009, published 2011)
